Results as given in patent publication US5260275A, “Hypoglycemics” (Amylin Pharmaceuticals, Inc., priority 1990, dated 1993).
pEC50: −log10 of the molar value. No end group written: not given here.

How the values were obtained:
HIT T-15 cells [1] = test: Insulin release from HIT T-15 cells; format: cell-based, hamster
Description: (§1) HIT T-15 cells (HIT cells; American Type Tissue Collection, Rockville, MD; R. F. Santerre, et al. (1981) Proc. Nat. Acad. Sci. USA 78, 4339-4343.) were subcultured weekly in Ham's F-12 medium (Irvine Scientific, Santa Ana, Calif.) containing 10% horse serum (Gemini Bioproducts, Calabasas, Calif.), 2.5% fetal bovine serum (FBS; Gemini), 2 mM L-glutamine, and 10.0 mM glucose. Cells were maintained at 37° C. and 5% CO2 / 95% humidified air and medium was replaced every 2 to 3 days. All experiments were performed with cells from passages 66 to 71.
(§2) Amylin and insulin secretion were measured using reagents of analytical grade unless otherwise indicated. The secretion medium was a Krebs-Ringer buffer (KRB) containing 119 mM NaCl, 4.74 mM KCl, 2,54 mM CaCl2, 1.19 mM MgSO4, 1.19 mM KH2 PO4, 25 mM NaHCO3, 10 mM HEPES and 0.1% protease-free bovine serum albumin (Cohn fraction V; Sigma Chemical Co., St. Louis Mo.) at pH 7.4. Glibenclamide (Sigma) was initially dissolved in ethanol (50 mg/ml) then diluted to working concentrations in KRB. […] Tolbutamide (Sigma) was initially dissolved in dimethylsulfoxide (50 mg/ml). […] Metformin (Sigma) was diluted in KRB.
(§3) Five days before each secretion study cells were subcultured at 0.26×10^6 cells/0.8 ml medium/well in 24-well tissue culture plates (Corning Glass Works, Corning N.Y.). Medium was replaced on day 3. On day 5 cells were washed twice with 1.0 ml KRB then incubated in 1.0 ml KRB (30 minutes, 37° C.) in equilibrium with air. Cells were washed twice more prior to addition of 0.5 ml KRB containing the indicated concentrations of glucose, metformin, tolbutamide and glibenclamide. After a 60 minute incubation with test substance or substances, supernatants were centrifuged (5 minutes, 500×g, 5° C.; GPKR centrifuge, Beckman Instruments, Inc., Palo Alto, Calif.) to remove cell debris, then stored in polypropylene micro test tubes (Brinkman Instrument Co., Westbury, N.Y.) at -20° C. until analyzed by radioimmunoassay. Supernatants were analyzed for insulin and amylin content within one week of collection. Three wells per plate were randomly selected for cell quantitation. Cells were incubated with 75 μg trypsin and 30 μg EDTA in 150 μl normal saline (8 minutes, 37° C.), then counted on a Coulter Counter (Model Zf, Coulter Electronics, Hialeah, Fla.).
(§4) Immunoreactive insulin content in supernatants was measured using a commercial radioimmunoassay (IM.78; Amersham, Arlington Heights, Ill.). […] The radioimmunoassay for immunoreactive amylin was as follows. Assay diluent was phosphate-buffered saline (PBS; 137 mM NaCl, 2.68 mM KCl, 1.47 mM KH2 PO4, 6.65 mM Na2 HPO4) containing 0.1% Triton-X 100 (v/v), 0.01% NaN3 (w/v), and 0.1% gelatin (v/v; teleostean, 45% aqueous solution, Sigma) at pH 7.4. All incubations were performed at 4° C. ^125 I-[Tyr 37]-human synthetic amylin tracer was iodinated by the chloramine-T method and purified on a C18 Sep-Pak (Waters Associates, Milford, Mass.). Specific activity was approximately 500 μCi/μg.
Data in FIGS. 3 and 4 are shown as the mean±S.D. of 4 replicate samples. An unpaired Student's t-test was used to compare secretion in the absence and presence of hypoglycemic agent (Statview 512+ program; Brain Power, Inc., Calabasas, Calif.).
as §1, with “Md.)” for “MD; R. F. Santerre, et al. (1981) Proc. Nat. Acad. Sci. USA 78, 4339-4343.)”, “L-glutamine, 10^5 IU penicillin G/1, 100 mg streptomycin/1” for “L-glutamine,”, “C02/” for “CO2 /”, “62” for “66”

HIT T-15 cells [2] = test: Amylin release from HIT T-15 cells; format: cell-based, hamster; details: for Effect on basal and glucose-stimulated amylin secretion (in words): same concentrations that stimulate insulin secretion (tolbutamide 100 μM; glibenclamide 0.1 and 1.0 μM), 0 and 10 mM glucose
Description: as §1, §2, §3, §4
Standards and unknowns were run in triplicate or duplicate respectively. After an 18 hour incubation, 100 μl of tracer containing 20,000 dpm was added and samples were incubated an additional 18 hours. To ensure complete immunoprecipitation of amylin:antibody complexes, 100 μl of rabbit gamma globulin (0.35 mg/ml, Scantibodies Laboratory, Santee, Calif.) and 100 μl of goat anti-rabbit gamma globulin (0.50 mg/ml, purified grade; Scantibodies) were added. After a 15 minute incubation, 1.0 ml 2% polyethylene glycol (w/v. MW 8,000; Sigma) in assay buffer was added and samples were centrifuged (30 minutes, 1500×g, 5° C.). Samples were decanted and pellets were counted on a gamma counter (model 1277; LKB Wallac, Turku, Finland).
Data in FIGS. 3 and 4 are shown as the mean±S.D. of 4 replicate samples.

[3] = system: amylin inhibition of insulin-stimulated muscle glycogen synthesis; test: Antagonist assay in isolated rat soleus muscle (radiolabelled glucose into glycogen, Example 6); format: cell-based; details: 1000 μU/mL insulin
Description: An antagonist assay was performed in vitro using the isolated soleus muscle from rats. It measured the rate of incorporation of radiolabelled glucose into muscle glycogen as follows: […] There were therefore 9 treatment groups (conditions 1,2,3 and six subgroups of condition 4). The right and left soleus muscles of 4-hour fasted rats were removed immediately after decapitation of the animals, divided in half and temporarily placed in physiological saline. Muscles were assigned to different treatment groups so that the 4 muscle pieces from each animal were evenly distributed among the 9 flasks representing the different assay conditions. […] Pharmacologically active agents were added to the 10mL of medium to result in the above stated concentrations and mixtures. […] Frozen muscle specimens were digested in 1 mL 60% potassium hydroxide at 70° C. for 45 minutes. […] The supernatant was aspirated and the glycogen washed with ethanol, aspirated and dried under vacuum. The remaining glycogen was redissolved in water and scintillation fluid and counted for ^14 C. From a knowledge of the specific activity of ^14 C-glucose in the 5.5 mM glucose of the incubation medium, and the total ^14 C counts remaining in the glycogen extracted from each muscle, the net rate of glycogen synthesis over the final 60 minute incubation period was determined. This was normalized per mass of muscle and expressed as μmoles of glucosyl units incorporated into glycogen per hour per gram of muscle. The antagonist dose/response curve was fitted to a 4-parameter logistic model using a least-squares iterative routine (ALLFIT, v2.7, NIH, MD) to derive the EC50 for disinhibition.

[4] = system: isolated rat islets of Langerhans; test: Glucose-stimulated insulin secretion from isolated rat islets of Langerhans; format: cell-based; details: glucose 10 mmol/L
Description: The following experiments illustrate the fact that subpeptides of amylin can act to reduce the amount of insulin produced by isolated islets of Langerhans in response to a standard glucose challenge. Similar results have been obtained using whole amylin. All experiments were performed by known methods used in experimental practice. See, e.g., Lacey P. E., and Kostianovsky M., Method for the Isolation of Intact Islets of Lanaerhans from the Rat Pancreas. Diabetes 1967; 16:35-39.
Briefly, rats were killed, and islets of Langerhans were isolated from their pancreases. Experiments were performed either with freshly isolated islets or after overnight incubation of islets (23 h) in standard culture medium and conditions at 37° C. Synthetic amylin peptide 27-37 or synthetic calcitonin gene related peptide (CGRP) was dissolved in a 1.0 mmol/L citric acid/sodium citrate buffer, pH 3.0, and the concentration of the amylin 27-37 was verified by quantitative amino acid analysis. See, e.g., Cooper G. J. S. et al., Proc Natl Acad Sci USA 1987; 84:8628-8632. […] Stimulation of islets was carried out at the standard stimulatory glucose concentration of 10 mmol/L.
Production of insulin is expressed as μU/islet/h. All experiments were performed with five replicates per point. The integrity of the islet response was assessed by comparing the responses after stimulation of different aliquots of islets by two and ten mmol/L glucose, respectively, and the strength of the inhibitory response was judged against that induced by 1 μg/ml (650 nmol/L) somatostatin. Somatostatin is a 14 amino acid peptide which is a known, potent inhibitor of the insulin secretory response of islet B-cells to glucose. Arimura A. Biomed res1981; 2:233-257. […] Petterson M., Ahren B., Bottcher G., Sundler F., Endocrinology 1986; 119:865-869.
The results are shown in TABLE 5 below and all results are expressed as standard error of the mean (s.e.m.). The significance of differences between the means of groups is assessed by the t-test. The result of stimulation by 10 mmol/L glucose is compared with the results of stimulation at 2 mmol/L glucose. In all other experimental conditions, the significance of the inhibitory effect is measured against the effect of 10 mmol/L glucose alone.

[5] = Intravenous amylin bolus in normal rats; format: in vivo, rat
Description: We have also shown that amylin acutely produces diabetes (fasting hyperglycemia greater than 140 mg/dL) when administered intravenously. Eight normal rats were injected with a 100 μg bolus of amylin (rat amylin, Bachem, Torrance, Calif.). An intravenous amylin bolus produced a profound hyperglycemia to diabetic levels within 15-30 minutes (usually around 200 mg/dL). This hyperglycemia persists for several hours. […] There is an increase in respiratory quotient (RQ) after amylin only when somatostatin is absent and insulin is allowed to increase in response to hyperglycemia. During somatostatin infusion (no endogenous insulin release), there is no change in RQ, indicating no change from lipid to carbohydrate fuel usage in response to amylin in the fasted animal.

[6] = 100 μg intravenous bolus, normal rats

In the case of `COc1ccc(Cl)cc1C(=O)NCCc1ccc(S(=O)(=O)NC(=O)NC2CCCCC2)cc1` [glibenclamide], the “Proportional increase of basal insulin release” value (HIT T-15 cells [1]; 0 glucose) was “more than two-fold”, the “Effect on basal and glucose-stimulated secretion of insulin (in words)” value (HIT T-15 cells [1]; 0.1 and 1.0 μM, 0 and 10 mM glucose, 60 min) was “significantly enhanced” and the “Proportional increase in basal amylin secretion” value (HIT T-15 cells [2]; basal conditions (0 glucose)) was “approximately two-fold”. For the same compound, the “Effect on basal and glucose-stimulated amylin secretion (in words)” value (HIT T-15 cells [2]) was “significantly increase”.

In the case of `CN(C)C(=N)N=C(N)N` [metformin], the “Effect on insulin secretion (in words)” value (HIT T-15 cells [1]; 10 and 100 μM, 0 and 10 mM glucose, 60 min) was “no measurable effect” and the “Effect on rates of amylin secretion (in words)” value (HIT T-15 cells [2]; islet β-cells (HIT), concentration range examined) was “does not influence”.

In the case of `CCCCNC(=O)NS(=O)(=O)c1ccc(C)cc1` [tolbutamide], the “Effect on basal and glucose-stimulated secretion of insulin (in words)” value (HIT T-15 cells [1]; 100 μM, 0 and 10 mM glucose, 60 min) was “significantly enhanced” and the “Effect on basal and glucose-stimulated amylin secretion (in words)” value (HIT T-15 cells [2]) was “significantly increase”.

With “CGRP8-37: 8-37 human CGRP (Bachem), amylin antagonist” the “Effect on amylin inhibition of insulin-stimulated muscle glycogen synthesis (in words)” value ([3]; 20 nM amylin) was “partly reverses”, the “Increment in the rate of glycogen synthesis, maximum reached” value ([3]; 20 nM amylin, antagonist 1 nM-10 μM) was “about 115 % of basal” and the pEC50 ([3]; 20 nM amylin, read-out: EC50 for disinhibition (half maximal concentration)) was 8.92.

For “CGRP 27-37: subpeptide 27-37 of calcitonin gene related peptide (FVPTNVGSKAF; ends and bridges not checked; UniProt P06881 109-119, looked up, fragment)”, the Insulin production ([4]; substance 10 nmol/L) was 36 μU/islet/hr, the “Relative insulin secretion inhibition (percentage by which insulin production is reduced from control)” value ([4]; substance 10 nmol/L) was 55% and the Insulin production ([4]; substance 100 nmol/L) was 36 μU/islet/hr. The “Relative insulin secretion inhibition (percentage by which insulin production is reduced from control)” value ([4]; substance 100 nmol/L) was 55%, the Insulin production ([4]; substance 1000 nmol/L) was 46 μU/islet/hr and the “Relative insulin secretion inhibition (percentage by which insulin production is reduced from control)” value ([4]; substance 1000 nmol/L) was 42%.

In the case of “insulin: Humulin-R, 100U/mL, recombinant human insulin (Eli Lilly)”, the “Increase in rate of glycogen synthesis” value ([3]; zero amylin, zero antagonist) was 3.7 fold.

For “rat amylin: rat amylin, Bachem, Torrance, Calif. (KCNTATCATQRLANFLVRSSNNLGPVLPPTNVGSNTY; ends and bridges not checked; cysteine pairing not given here; UniProt P12969 38-74, looked up)”, the Duration of hyperglycemia [5, 6] was “several hours”, the “Hepatic (endogenous) glucose output” value [5, 6] was “increase” and the “Hyperglycemia level after bolus” value [5, 6] was “around 200 mg/dL”. The Peripheral glucose disposal [5, 6] was “increased impediment”, the Plasma lactate [5, 6] was “transient increase” and the “Time to hyperglycemia at diabetic levels” value [5, 6] was 15 to 30 min. The “Respiratory quotient (RQ)” value ([5]; during somatostatin infusion (no endogenous insulin release)) was “no change”, the “Respiratory quotient (RQ)” value ([5]; somatostatin absent, insulin allowed to increase) was “increase” and the “Decrease of insulin-stimulated rate of glycogen synthesis” value ([3]; 20 nM amylin) was “approximately 83%”.
